Data from PubChem BioAssay AID1259407 (Chemical Carcinogenesis Research Information System (CCRIS), 2018).
Active and inactive are the calls of the source. The rule behind the calls is not given here.

System: CCRIS mutagenicity, Ames/micronucleus/aberration tests
Assay: CCRIS mutagenicity studies
[1] = Test System: AMES SALMONELLA TYPHIMURIUM, Strain/Indicator: TA98, Metabolic Activation: NONE, Method: PREINCUBATION
[2] = Test System: AMES SALMONELLA TYPHIMURIUM, Strain/Indicator: TA98, Metabolic Activation: NONE, Method: STANDARD PLATE
[3] = Test System: AMES SALMONELLA TYPHIMURIUM, Strain/Indicator: TA98, Metabolic Activation: RAT, LIVER, S-9, AROCLOR 1254, Method: STANDARD PLATE
[4] = Test System: AMES SALMONELLA TYPHIMURIUM, Strain/Indicator: TA100, Metabolic Activation: NONE, Method: STANDARD PLATE
[5] = Test System: AMES SALMONELLA TYPHIMURIUM, Strain/Indicator: TA1535, Metabolic Activation: NONE, Method: STANDARD PLATE
[6] = Test System: AMES SALMONELLA TYPHIMURIUM, Strain/Indicator: TA1538, Metabolic Activation: NONE, Method: STANDARD PLATE
[7] = Test System: AMES SALMONELLA TYPHIMURIUM, Strain/Indicator: TA98, Metabolic Activation: RAT LIVER S-9, PHENOBARBITAL AND BETA-NAPHTHOFLAVONE, Method: PREINCUBATION
[8] = Test System: AMES SALMONELLA TYPHIMURIUM, Strain/Indicator: TA100, Metabolic Activation: NONE, Method: PREINCUBATION
[9] = Test System: AMES SALMONELLA TYPHIMURIUM, Strain/Indicator: TA100, Metabolic Activation: RAT LIVER S-9, PHENOBARBITAL AND BETA-NAPHTHOFLAVONE, Method: PREINCUBATION
[10] = Test System: AMES SALMONELLA TYPHIMURIUM, Strain/Indicator: TA1535, Metabolic Activation: NONE, Method: PREINCUBATION
[11] = Test System: AMES SALMONELLA TYPHIMURIUM, Strain/Indicator: TA1535, Metabolic Activation: RAT LIVER S-9, PHENOBARBITAL AND BETA-NAPHTHOFLAVONE, Method: PREINCUBATION
[12] = Test System: AMES SALMONELLA TYPHIMURIUM, Strain/Indicator: TA1537, Metabolic Activation: NONE, Method: PREINCUBATION
[13] = Test System: AMES SALMONELLA TYPHIMURIUM, Strain/Indicator: TA1537, Metabolic Activation: RAT LIVER S-9, PHENOBARBITAL AND BETA-NAPHTHOFLAVONE, Method: PREINCUBATION
[14] = Test System: AMES SALMONELLA TYPHIMURIUM, Strain/Indicator: TA1538, Metabolic Activation: NONE, Method: PREINCUBATION
[15] = Test System: AMES SALMONELLA TYPHIMURIUM, Strain/Indicator: TA1538, Metabolic Activation: RAT LIVER S-9, PHENOBARBITAL AND BETA-NAPHTHOFLAVONE, Method: PREINCUBATION
[16] = Test System: E.COLI, Strain/Indicator: WP2UVRA, Metabolic Activation: NONE, Method: PREINCUBATION
[17] = Test System: E.COLI, Strain/Indicator: WP2UVRA, Metabolic Activation: RAT LIVER S-9, PHENOBARBITAL AND BETA-NAPHTHOFLAVONE, Method: PREINCUBATION

Compound	mutagenic call [1]	mutagenic call [2]	mutagenic call [3]	mutagenic call [4]	mutagenic call [5]	mutagenic call [6]	mutagenic call [7]	mutagenic call [8]	mutagenic call [9]	mutagenic call [10]	mutagenic call [11]	mutagenic call [12]	mutagenic call [13]	mutagenic call [14]	mutagenic call [15]	mutagenic call [16]	mutagenic call [17]	also measured
COc1cccc2c1C(=O)c1c(O)c3c(c(O)c1C2=O)C[C@@](O)(C(C)=O)C[C@@H]3O[C@H]1C[C@H](N)[C@H](O)[C@H](C)O1	active; positive	active; positive	active; positive	active; positive	inactive; negative	active; positive	–	–	–	–	–	–	–	–	–	–	–	mutagenic call (End Point: In vitro micronucleus, Test System: Human lymphoblastoid TK6 cells, Metabolic Activation: None): active; positive (p<0.001); mutagenic call (Test System: AMES SALMONELLA TYPHIMURIUM, Strain/Indicator: GW257, Metabolic Activation: NONE, Method: STANDARD PLATE): active; positive; mutagenic call (Test System: AMES SALMONELLA TYPHIMURIUM, Strain/Indicator: TA97, Metabolic Activation: NONE, Method: STANDARD PLATE): inactive; negative; mutagenic call (Test System: AMES SALMONELLA TYPHIMURIUM, Strain/Indicator: TA98, Metabolic Activation: RAT, LIVER, S-9, KC500 OR PHENOBARBITAL, Method: LIQUID SUSPENSION): active; positive; mutagenic call (Test System: AMES SALMONELLA TYPHIMURIUM, Strain/Indicator: TA100, Metabolic Activation: RAT, LIVER, S-9, KC500 OR PHENOBARBITAL, Method: LIQUID SUSPENSION): active; positive; mutagenic call (Test System: AMES SALMONELLA TYPHIMURIUM, Strain/Indicator: TA102, Metabolic Activation: NONE, Method: STANDARD PLATE): active; positive; mutagenic call (Test System: AMES SALMONELLA TYPHIMURIUM, Strain/Indicator: TA104, Metabolic Activation: NONE, Method: STANDARD PLATE): inactive; negative; mutagenic call (Test System: AMES SALMONELLA TYPHIMURIUM, Strain/Indicator: TA1978/PKM101, Metabolic Activation: NONE, Method: STANDARD PLATE): active; positive; mutagenic call (Test System: AMES SALMONELLA TYPHIMURIUM, Strain/Indicator: TA1978, Metabolic Activation: NONE, Method: STANDARD PLATE): inactive; negative; mutagenic call (Test System: AMES SALMONELLA TYPHIMURIUM, Strain/Indicator: TA2637, Metabolic Activation: NONE, Method: STANDARD PLATE): active; positive; mutagenic call (Test System: AMES SALMONELLA TYPHIMURIUM, Strain/Indicator: TA2638, Metabolic Activation: NONE, Method: STANDARD PLATE): active; positive; mutagenic call (Test System: CHINESE HAMSTER V-79, Strain/Indicator: V-79/6-THIOGUANINE, Metabolic Activation: NONE, Method: SUSPENSION/PLATE): inactive; negative; mutagenic call (Test System: CHINESE HAMSTER V-79, Strain/Indicator: V-79/6-THIOGUANINE, Metabolic Activation: RAT, LIVER, HOMOGENATE, Method: SUSPENSION/PLATE): inactive; negative; mutagenic call (Test System: CHINESE HAMSTER V-79, Strain/Indicator: V-79/8-AZAGUANINE, Metabolic Activation: NONE, Method: STANDARD PLATE): active; positive; mutagenic call (Test System: E. COLI, Strain/Indicator: WP2 (HCR), Metabolic Activation: NONE, Method: STANDARD PLATE): inactive; negative; mutagenic call (Test System: E. COLI, Strain/Indicator: WP2 (PKM101), Metabolic Activation: NONE, Method: STANDARD PLATE): active; positive; mutagenic call (Test System: E. COLI, Strain/Indicator: WP2 UVRA (PKM101), Metabolic Activation: NONE, Method: STANDARD PLATE): active; positive; mutagenic call (Test System: UDS RAT HEPATOCYTES, Strain/Indicator: THY INCORP, Metabolic Activation: NONE, Method: AUTOMATIC COLONY COUNTER): active; positive
NC(=Nc1ccccc1)Nc1ccccc1	inactive; negative	inactive; negative	inactive; negative	inactive; negative	inactive; negative	inactive; negative	inactive; negative	inactive; negative	inactive; negative	inactive; negative	inactive; negative	inactive; negative	inactive; negative	inactive; negative	inactive; negative	inactive; negative	inactive; negative	mutagenic call (Test System: AMES SALMONELLA TYPHIMURIUM, Strain/Indicator: TA98, Metabolic Activation: HAMSTER, LIVER, S-9, AROCLOR 1254, Method: STANDARD PLATE): active; positive; mutagenic call (Test System: AMES SALMONELLA TYPHIMURIUM, Strain/Indicator: TA98, Metabolic Activation: S-9, Method: STANDARD PLATE): inactive; negative; mutagenic call (Test System: AMES SALMONELLA TYPHIMURIUM, Strain/Indicator: TA100, Metabolic Activation: HAMSTER, LIVER, S-9, AROCLOR 1254, Method: STANDARD PLATE): active; positive; mutagenic call (Test System: AMES SALMONELLA TYPHIMURIUM, Strain/Indicator: TA100, Metabolic Activation: RAT, LIVER, S-9, AROCLOR 1254, Method: STANDARD PLATE): inactive; negative; mutagenic call (Test System: AMES SALMONELLA TYPHIMURIUM, Strain/Indicator: TA100, Metabolic Activation: S-9, Method: STANDARD PLATE): inactive; negative; mutagenic call (Test System: AMES SALMONELLA TYPHIMURIUM, Strain/Indicator: TA1535, Metabolic Activation: HAMSTER, LIVER, S-9, AROCLOR 1254, Method: STANDARD PLATE): inactive; negative; mutagenic call (Test System: AMES SALMONELLA TYPHIMURIUM, Strain/Indicator: TA1535, Metabolic Activation: RAT, LIVER, S-9, AROCLOR 1254, Method: STANDARD PLATE): inactive; negative; mutagenic call (Test System: AMES SALMONELLA TYPHIMURIUM, Strain/Indicator: TA1537, Metabolic Activation: HAMSTER, LIVER, S-9, AROCLOR 1254, Method: STANDARD PLATE): inactive; negative; mutagenic call (Test System: AMES SALMONELLA TYPHIMURIUM, Strain/Indicator: TA1537, Metabolic Activation: RAT, LIVER, S-9, AROCLOR 1254, Method: STANDARD PLATE): inactive; negative; mutagenic call (Test System: AMES SALMONELLA TYPHIMURIUM, Strain/Indicator: TA1538, Metabolic Activation: HAMSTER, LIVER, S-9, AROCLOR 1254, Method: STANDARD PLATE): inactive; negative; mutagenic call (Test System: AMES SALMONELLA TYPHIMURIUM, Strain/Indicator: TA1538, Metabolic Activation: RAT, LIVER, S-9, AROCLOR 1254, Method: STANDARD PLATE): inactive; negative; mutagenic call (Test System: MOUSE LYMPHOMA, Strain/Indicator: L5178Y (TK+/TK-), Metabolic Activation: NONE, Method: SUSPENSION/PLATE): inactive; negative. reevaluation of results: negative; mutagenic call (Test System: MOUSE LYMPHOMA, Strain/Indicator: L5178Y (TK+/TK-), Metabolic Activation: RAT, LIVER, S-9, AROCLOR 1254, Method: SUSPENSION/PLATE): inactive; negative. reevaluation of results: inconclusive
Cc1cc(-c2ccc(N=C=O)c(C)c2)ccc1N=C=O	inactive; negative	–	–	–	–	–	active; positive	inactive; negative	inactive; negative	inactive; negative	inactive; negative	inactive; negative	inactive; negative	inactive; negative	active; positive	inactive; negative	inactive; negative	mutagenic call (End Point: IN VITRO CHROMOSOMAL ABERRATIONS, Test System: CHL CELLS, Metabolic Activation: RAT, LIVER, S-9, SODIUM PHENOBARBITAL AND 5,6-BENZOFLAVONE): active; positive (structural changes)
